Source: patent publication US20050209278A1, “Piperidinyl- and piperazinyl-sulfonylmethyl hydroxamic acids and their use as protease inhibitors” (priority 2002, published 2005)

Target: T1, MMP-2 (Homo sapiens, UniProt P08253)
T1 construct: made in house; host or cells: MMP-2-transfected p2AHT2 cells
T1 sequence (P08253 110-660): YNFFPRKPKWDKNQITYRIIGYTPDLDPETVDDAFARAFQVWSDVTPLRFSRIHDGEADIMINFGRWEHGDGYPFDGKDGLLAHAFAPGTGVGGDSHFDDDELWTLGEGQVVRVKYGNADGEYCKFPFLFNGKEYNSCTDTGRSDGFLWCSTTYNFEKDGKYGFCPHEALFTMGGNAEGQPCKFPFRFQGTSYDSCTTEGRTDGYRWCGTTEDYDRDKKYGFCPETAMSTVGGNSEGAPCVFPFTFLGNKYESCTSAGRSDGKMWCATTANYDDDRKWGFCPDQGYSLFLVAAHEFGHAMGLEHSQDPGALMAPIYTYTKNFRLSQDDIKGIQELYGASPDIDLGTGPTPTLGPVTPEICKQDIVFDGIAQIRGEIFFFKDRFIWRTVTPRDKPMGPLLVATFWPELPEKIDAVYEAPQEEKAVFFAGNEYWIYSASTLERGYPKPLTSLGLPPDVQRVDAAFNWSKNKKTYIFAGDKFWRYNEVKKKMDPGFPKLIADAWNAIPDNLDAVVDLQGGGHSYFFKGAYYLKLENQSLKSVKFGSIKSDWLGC
Assay: In vitro MMP inhibition, IC50 determination (fluorogenic substrate I)
Assay type: biochemical
Conditions: value in parentheses; read-out: MMP-2 (IC-50)
Procedure: Several hydroxamic acids and salts thereof were analyzed in in vitro assays to determine their ability to inhibit the MMP cleavage of peptide substrates. […] and IC50 constants were calculated from the assayed hydroxamic acid-MMP interactions.
Human recombinant MMP-1, MMP-2, MMP-9, MMP-13, and MMP-14 were used in this assay. All enzymes were prepared in Assignee's laboratories following usual laboratory procedures. Protocols for the preparation and use of these enzymes are available in the scientific literature. See, e.g., Enzyme Nomenclature (Academic Press, San Diego, Calif., 1992) (and the citations therein). See also, Freije et al., “Molecular cloning and expression of collagenase-3, a novel human matrix metalloproteinase produced by breast carcinomas,” J Biol. Chem., 269(24), 16766-16773 (1994).
The MMP-2 proenzyme was purified by gelatin Sepharose chromatography from MMP-2-transfected p2AHT2 cells provided by Dr. Gregory Goldberg of Washington University (St. Louis, Mo.).
All MMPs were activated using 4-aminophenylmercuric acetate (“APMA”, Sigma Chemical, St. Louis, Mo.) or trypsin. MMP-9 also was activated using human recombinant MMP-3 (purified in Assignee's laboratory following standard cloning and purification techniques).
Two fluorogenic, methoxycoumarin-containing polypeptide substrates were used in the MMP inhibition assays: [drawing 427] Here, “Dpa” is 3-(2,4-dinitrophenyl)-L-2,3-diaminopropionyl group, and “MCA” is 7-methoxycoumarin-4-yl acetyl. Substrate (I) was purchased from Baychem (Redwood City, Calif.), and substrate II was prepared Assignee's laboratory. Substrate I was used in the IC50 determination assays, while substrate II was used in the Ki determination assays. In the absence of MMP inhibitory activity, either substrate is cleaved at the Gly-Leu peptide bond. This cleavage separates the highly fluorogenic peptide from the 2,4-dinitrophenyl quencher, thus resulting in increase of fluorescent intensity.
The stock solutions of the assayed hydroxamic acids (or salts thereof) were prepared in 1% dimethyl sulfoxide (DMSO). These stock solutions were diluted in Buffer A (100 mM Tris-HCl, 100 mM NaCl, 10 mM CaCl2, 0.05% polyoxyethylene 23 lauryl ether, pH 7.5) to obtain solutions with different hydroxamic acid concentrations, i.e., assay solutions with different concentrations of the assayed MMP inhibitory compound. The experiment controls contained the same amount of Buffer A/DMSO as the assayed sample, but contained no hydroxamic acid (or salt thereof).
The assays from which the IC50 determinations were made were performed as follows. The MMPs were activated with either trypsin or APMA (4-aminophenylmercuric acetate, Sigma Chemical, St. Louis, Mo.). The assayed hydroxamic acid samples were incubated in Microfluor™ White Plates (Dynatech, Chantilly, Va.) and analyzed on a Perkin Elmer L550 plate reader (Norwalk, Conn.). The excitation wavelength was 328 nm, and the emission wavelength—415 nm. All samples (assayed hydroxamic acids and controls) were incubated in separate plates at room temperature in the presence of 4 μM of MMP substrate (I). As stated in the previous paragraph, samples containing varying concentrations of the same assayed hydroxamic acid were prepared. Inhibition was measured as a reduction in fluorescent intensity as a function of MMP inhibitor concentration.
The above protocols were used to determine IC50 constants and Ki values for the compounds in Examples 1-27 above. All values in Table 2 are given in nM units. The IC50 measurements are in parenthesis.

| Structure (SMILES) | IC50 |
| --- | --- |
| CCCCOc1ccc(N2CCN(S(=O)(=O)C3(C(=O)NO)CCN(c4ccc(C)cc4)CC3)CC2)cc1 [Example 295] | < 0.1 nM |
| CCCCOc1ccc(N2CCN(S(=O)(=O)C3(C(=O)NO)CCN(C4CC4)CC3)CC2)cc1 [Example 301] | 0.2 nM |
| C#CCN1CCC(C(=O)NO)(S(=O)(=O)N2CCN(c3ccc(OCCCC)cc3)CC2)CC1 [Example 303] | 0.1 nM |
| CCCCOc1ccc(N2CCN(S(=O)(=O)C3(C(=O)NO)CCN(c4ccc(C)cc4)CC3)CC2)cc1F [Example 296] | < 0.1 nM |
| CCCCOc1ccc(N2CCN(S(=O)(=O)C3(C(=O)NO)CCN(C(=O)CN)CC3)CC2)cc1 [Example 292] | 0.2 nM |
| CS(=O)(=O)c1ccc(N2CCN(S(=O)(=O)C3(C(=O)NO)CCOCC3)CC2)cc1 [Example 300] | 27.3 nM |
| CCCCOc1ccc(N2CCN(S(=O)(=O)C3(C(=O)NO)CCN(Cc4cccnc4)CC3)CC2)cc1F [Example 293] | 0.3 nM |
| Cc1cc(N2CCN(S(=O)(=O)C3(C(=O)NO)CCOCC3)CC2)ccc1OC(C)C [Example 299] | 12.5 nM |
| COCCOc1ccc(N2CCN(S(=O)(=O)C3(C(=O)NO)CCN(C4CC4)CC3)CC2)cc1F [Example 297] | 0.4 nM |
| CCCCOc1ccc(N2CCN(S(=O)(=O)C3(C(=O)NO)CCN(CC4CC4)CC3)CC2)cc1 [Example 298] | 1.1 nM |
